In US20230017045A1, “PYRIDINE AND PYRIMIDINE CARBOXYLATE HERBICIDES AND METHODS OF USE THEREOF” (Dow AgroSciences LLC, priority 2017, published 2023):
Read-outs that look alike come from different tables or passages of the source.

System: test plant species
Experiment: Post-emergent herbicidal activity test (greenhouse, foliar spray, visual growth reduction)
Assay type: in vivo
Settings: post-emergence, 336 h, 140 g ai/ha
Outline: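 Plants grown in greenhouse (15 h photoperiod, 23-29° C day/22-28° C night) to first or second true leaf stage were sprayed overhead with compound in acetone/water/isopropanol/DMSO/crop oil/X-77 carrier at 187 L/ha. Injury was scored visually after 14 d on a 0-100% scale versus solvent-blank and untreated controls.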

[1] = ALOMY: blackgrass (Alopecurus myosuroides), 14 days after application, read-out: Visual Growth Reduction (%) 14 Days After Application, ALOMY
[2] = AMARE: redroot pigweed (Amaranthus retroflexus), 14 days after application, read-out: Visual Growth Reduction (%) 14 Days After Application, AMARE
[3] = AVEFA: wild oat (Avena fatua), 14 days after application, read-out: Visual Growth Reduction (%) 14 Days After Application, AVEFA
[4] = CHEAL: lambsquarters (Chenopodium album), 14 days after application, read-out: Visual Growth Reduction (%) 14 Days After Application, CHEAL
[5] = CIRAR: canada thistle (Cirsium arvense), 14 days after application, read-out: Visual Growth Reduction (%) 14 Days After Application, CIRAR
[6] = CYPES: yellow nutsedge (Cyperus esculentus), 14 days after application, read-out: Visual Growth Reduction (%) 14 Days After Application, CYPES
[7] = DIGSA: crabgrass (Digitaria sanguinalis), 14 days after application, read-out: Visual Growth Reduction (%) 14 Days After Application, DIGSA
[8] = ECHCG: barnyardgrass (Echinochloa crus-galli), 14 days after application, read-out: Visual Growth Reduction (%) 14 Days After Application, ECHCG
[9] = IPOHE: ivy-leaf morning glory (Ipomoea hederacea), 14 days after application, read-out: Visual Growth Reduction (%) 14 Days After Application, IPOHE
[10] = KCHSC: kochia (Bassia scoparia), 14 days after application, read-out: Visual Growth Reduction (%) 14 Days After Application, KCHSC
[11] = ORYSA: rice (Oryza sativa), 14 days after application, read-out: Visual Growth Reduction (%) 14 Days After Application, ORYSA
[12] = SETFA: giant foxtail (Setaria faberi), 14 days after application, read-out: Visual Growth Reduction (%) 14 Days After Application, SETFA
[13] = SORVU: grain sorghum (Sorghum vulgare), 14 days after application, read-out: Visual Growth Reduction (%) 14 Days After Application, SORVU
[14] = STEME: common chickweed (Stellaria media), 14 days after application, read-out: Visual Growth Reduction (%) 14 Days After Application, STEME
[15] = TRZAS: wheat, spring (Triticum aestivum), 14 days after application, read-out: Visual Growth Reduction (%) 14 Days After Application, TRZAS
[16] = blackgrass (Alopecurus myosuroides), 14 Days After Application, read-out: Visual Growth Reduction (%) ALOMY
[17] = canada thistle (Cirsium arvense), 14 Days After Application, read-out: Visual Growth Reduction (%) CIRAR
[18] = crabgrass (Digitaria sanguinalis), 14 Days After Application, read-out: Visual Growth Reduction (%) DIGSA
[19] = lambsquarters (Chenopodium album), 14 Days After Application, read-out: Visual Growth Reduction (%) CHEAL
[20] = redroot pigweed (Amaranthus retroflexus), 14 Days After Application, read-out: Visual Growth Reduction (%) AMARE
[21] = wild oat (Avena fatua), 14 Days After Application, read-out: Visual Growth Reduction (%) AVEFA
[22] = yellow nutsedge (Cyperus esculentus), 14 Days After Application, read-out: Visual Growth Reduction (%) CYPES

COC(=O)c1nc(-c2ccc(C(F)(F)F)cc2C(N)=O)c(Cl)cc1Cl [F147, Methyl 6-(2-carbamoyl-4-(trifluoromethyl)phenyl)-3,5-dichloropicolinate]
pest or weed control at 140 g/ha [1]: 0 to 29%
pest or weed control at 140 g/ha [2]: 45 to 59%
pest or weed control at 140 g/ha [3]: 0 to 29%
pest or weed control at 140 g/ha [4]: 30 to 44%
pest or weed control at 140 g/ha [5]: 0 to 29%
pest or weed control at 140 g/ha [6]: 0 to 29%
pest or weed control at 140 g/ha [7]: 0 to 29%
pest or weed control at 140 g/ha [8]: 0 to 29%
pest or weed control at 140 g/ha [9]: 30 to 44%
pest or weed control at 140 g/ha [10]: 0 to 29%
pest or weed control at 140 g/ha [11]: 0 to 29%
pest or weed control at 140 g/ha [12]: 0 to 29%
pest or weed control at 140 g/ha [13]: 0 to 29%
pest or weed control at 140 g/ha [14]: 0 to 29%
pest or weed control at 140 g/ha [15]: 0 to 29%

C#Cc1cc(C(F)(F)F)ccc1-c1ccc(Cl)c(C(=O)OC)n1 [F16, methyl 3-chloro-6-(2-ethynyl-4-(trifluoromethyl)phenyl) picolinate]
pest or weed control at 140 g/ha [1]: 0 to 29%
pest or weed control at 140 g/ha [2]: 30 to 44%
pest or weed control at 140 g/ha [3]: 0 to 29%
pest or weed control at 140 g/ha [4]: 0 to 29%
pest or weed control at 140 g/ha [5]: 30 to 44%
pest or weed control at 140 g/ha [6]: 0 to 29%
pest or weed control at 140 g/ha [7]: 0 to 29%
pest or weed control at 140 g/ha (barnyardgrass (Echinochloa crus-galli), 14 Days After Application, read-out: Visual Growth Reduction (%) ECHCG): 0 to 29%
pest or weed control at 140 g/ha (common chickweed (Stellaria media), 14 Days After Application, read-out: Visual Growth Reduction (%) STEME): 0 to 29%
pest or weed control at 140 g/ha (giant foxtail (Setaria faberi), 14 Days After Application, read-out: Visual Growth Reduction (%) SETFA): 0 to 29%
pest or weed control at 140 g/ha (ivy-leaf morning glory (Ipomoea hederacea), 14 Days After Application, read-out: Visual Growth Reduction (%) IPOHE): 95 to 100%
pest or weed control at 140 g/ha (johnsongrass (Sorghum vulgare), 14 Days After Application, read-out: Visual Growth Reduction (%) SORVU): 75 to 84%
pest or weed control at 140 g/ha (kochia (Bassia scoparia), 14 Days After Application, read-out: Visual Growth Reduction (%) KCHSC): 0 to 29%
pest or weed control at 140 g/ha (rice (Oryza sativa), 14 Days After Application, read-out: Visual Growth Reduction (%) ORYSA): 0 to 29%
pest or weed control at 140 g/ha (wheat, spring (Triticum aestivum), 14 Days After Application, read-out: Visual Growth Reduction (%) TRZAS): 0 to 29%

CCCOC(=O)c1nc(-c2ccc(Cl)c(OC)c2F)ccc1Cl [F286, Propyl 3-chloro-6-(4-chloro-2-fluoro-3-methoxyphenyl) picolinate]
pest or weed control at 140 g/ha [8]: 0 to 29%
pest or weed control at 140 g/ha [9]: 60 to 74%
pest or weed control at 140 g/ha [10]: 60 to 74%
pest or weed control at 140 g/ha [11]: 0 to 29%
pest or weed control at 140 g/ha [12]: 0 to 29%
pest or weed control at 140 g/ha [13]: 0 to 29%
pest or weed control at 140 g/ha [14]: 0 to 29%
pest or weed control at 140 g/ha [15]: 0 to 29%
pest or weed control at 140 g/ha [16]: 0 to 29%
pest or weed control at 140 g/ha [17]: 60 to 74%
pest or weed control at 140 g/ha [18]: 0 to 29%
pest or weed control at 140 g/ha [19]: 75 to 84%
pest or weed control at 140 g/ha [20]: 0 to 29%
pest or weed control at 140 g/ha [21]: 0 to 29%
pest or weed control at 140 g/ha [22]: 0 to 29%

COC(=O)c1nc(-c2cccc(C(F)(F)F)c2F)ccc1Cl [F289, Methyl 3-chloro-6-(2-fluoro-3-(trifluoromethyl)phenyl)picolinate]
pest or weed control at 140 g/ha [8]: 0 to 29%
pest or weed control at 140 g/ha [9]: 45 to 59%
pest or weed control at 140 g/ha [10]: 0 to 29%
pest or weed control at 140 g/ha [11]: 0 to 29%
pest or weed control at 140 g/ha [12]: 0 to 29%
pest or weed control at 140 g/ha [13]: 0 to 29%
pest or weed control at 140 g/ha [14]: 0 to 29%
pest or weed control at 140 g/ha [15]: 0 to 29%
pest or weed control at 140 g/ha [16]: 0 to 29%
pest or weed control at 140 g/ha [17]: 30 to 44%
pest or weed control at 140 g/ha [18]: 0 to 29%
pest or weed control at 140 g/ha [19]: 30 to 44%
pest or weed control at 140 g/ha [20]: 0 to 29%
pest or weed control at 140 g/ha [21]: 0 to 29%
pest or weed control at 140 g/ha [22]: 0 to 29%

O=C(O)c1nc(-c2ccc(Cl)c3c2OC(F)(F)O3)ccc1Cl [F67, 3-Chloro-6-(7-chloro-2,2-difluorobenzo[d] [1,3]dioxol-4-yl) picolinic acid]
pest or weed control at 140 g/ha [1]: 0 to 29%
pest or weed control at 140 g/ha [2]: 45 to 59%
pest or weed control at 140 g/ha [3]: 0 to 29%
pest or weed control at 140 g/ha [4]: 0 to 29%
pest or weed control at 140 g/ha [5]: 0 to 29%
pest or weed control at 140 g/ha [6]: 0 to 29%
pest or weed control at 140 g/ha [7]: 0 to 29%
pest or weed control at 140 g/ha [8]: 0 to 29%
pest or weed control at 140 g/ha [9]: 0 to 29%
pest or weed control at 140 g/ha [10]: 0 to 29%
pest or weed control at 140 g/ha [11]: 0 to 29%
pest or weed control at 140 g/ha [12]: 0 to 29%
pest or weed control at 140 g/ha [13]: 0 to 29%
